Data published in ChEMBL document CHEMBL1944508, “Identification of triazolopyridazinones as potent p38α inhibitors” (Bioorg Med Chem Lett, 2012).

What was measured:
Format in all cases: ADME, organism-based
[1] = Clearance in rat; conditions: in vivo
[2] = Clearance in Sprague-Dawley rat at 2 mg/kg, iv; design: dose 2 mg/kg, route intravenous; conditions: in vivo
[3] = Volume of distribution at steady state in Sprague-Dawley rat at 2 mg/kg, iv; design: dose 2 mg/kg, route intravenous; conditions: in vivo, read-out: Vdss
[4] = Half life in Sprague-Dawley rat at 2 mg/kg, iv; design: dose 2 mg/kg, route intravenous; conditions: in vivo
[5] = AUC (0 to infinity) in Sprague-Dawley rat at 2 mg/kg, po; design: time infinity, dose 2 mg/kg, route oral; conditions: plasma
[6] = Oral bioavailability in Sprague-Dawley rat at 2 mg/kg; conditions: in vivo

| clearance [1] | clearance [2] | Vd [3] | half-life [4] | AUC(0-inf) [5] | bioavailability [6] | SMILES |
| --- | --- | --- | --- | --- | --- | --- |
| 0.22 L/h/kg |  |  |  |  |  | Cc1ccc(C(=O)NC2CC2)cc1-c1cc2cnn(-c3c(F)cccc3F)c2n(C)c1=O |
| 0.37 L/h/kg |  |  |  |  |  | Cc1ccc(C(=O)NC2CC2)cc1-c1ccn2c(-c3c(F)cccc3F)nnc2c1 |
|  | 0.526 L/h/kg | 2.42 L/kg | 3.4 h | 3.19 µg·h/mL | 83% | Cc1c(F)cc(C(=O)NC2CC2)cc1-c1cc2nnc(-c3c(F)cccc3Cl)n2n(C)c1=O |
|  | 0.787 L/h/kg | 2.54 L/kg | 2.76 h | 1.42 µg·h/mL | 55% | CCn1c(=O)c(-c2cc(C(=O)NC3CC3)ccc2C)cc2nnc(-c3c(F)cccc3Cl)n21 |
|  | 0.686 L/h/kg | 2.7 L/kg | 2.76 h | 1.37 µg·h/mL | 42% | CCn1c(=O)c(-c2cc(C(=O)NC3CC3)cc(F)c2C)cc2nnc(-c3c(F)cccc3Cl)n21 |
